Experimental data published in PubChem BioAssay AID248 (DTP/NCI, 2004).
Values joined by “and” are separate entries in the source; they are usually repeats but may differ in a detail not shown here. Equal values may be shown once. Inconclusive results and toxic doses are left out. Cut-off read from the data, not from the text of the source: active = T/C of 150% or more; inactive = T/C below 125%.

System: L1210 leukemia ip in BDF1 mice, survival T/C
Experiment: NCI In Vivo Anticancer Drug Screen. Data for tumor model L1210 Leukemia (intraperitoneal) in B6D2F1 (BDF1) mice
Details: endpoint: mean survival time, higher = longer survival
Method in brief: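 Value reflects the ratio of survival in compound-treated mice to survival in vehicle-treated controls, with both groups carrying the same transplanted tumor.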

[1] = dose: 100.0 mg/kg/injection, schedule: Q01DX001 (ip), vehicle: saline
[2] = dose: 200.0 mg/kg/injection, schedule: Q01DX001 (ip), vehicle: saline
[3] = dose: 400.0 mg/kg/injection, schedule: Q01DX001 (ip), vehicle: saline
[4] = dose: 25.0 mg/kg/injection, schedule: Q01DX009 (ip), vehicle: saline
[5] = dose: 50.0 mg/kg/injection, schedule: Q01DX009 (ip), vehicle: saline
[6] = dose: 100.0 mg/kg/injection, schedule: Q01DX009 (ip), vehicle: saline
[7] = dose: 100.0 mg/kg/injection, schedule: Q04DX003 (ip), vehicle: saline
[8] = dose: 10.0 mg/kg/injection, schedule: Q04DX003 (ip), vehicle: saline
[9] = dose: 20.0 mg/kg/injection, schedule: Q04DX003 (ip), vehicle: saline
[10] = dose: 100.0 mg/kg/injection, schedule: Q04DX002 (ip), vehicle: Klucel (hydroxypropylcellulose) (HPC)
[11] = dose: 200.0 mg/kg/injection, schedule: Q04DX002 (ip), vehicle: Klucel (hydroxypropylcellulose) (HPC)
[12] = dose: 400.0 mg/kg/injection, schedule: Q04DX002 (ip), vehicle: Klucel (hydroxypropylcellulose) (HPC)
[13] = dose: 100.0 mg/kg/injection, schedule: Q01DX009 (ip), vehicle: Klucel (hydroxypropylcellulose) (HPC)
[14] = dose: 200.0 mg/kg/injection, schedule: Q01DX009 (ip), vehicle: Klucel (hydroxypropylcellulose) (HPC)
[15] = dose: 400.0 mg/kg/injection, schedule: Q01DX009 (ip), vehicle: Klucel (hydroxypropylcellulose) (HPC)

Measured: T/C

CC(C)(C)c1ccc(OC(=O)NCCCCCCNC(=O)Oc2ccc(C(C)(C)C)cc2)cc1
inactive: dose: 100.0 mg/kg/injection, schedule: Q01DX009 (ip), vehicle: other 96 % of control | dose: 200.0 mg/kg/injection, schedule: Q01DX009 (ip), vehicle: other 91 % of control | dose: 400.0 mg/kg/injection, schedule: Q01DX009 (ip), vehicle: other 87 % of control

Nc1cccn2ncnc12
inactive: [1] 103 % of control | [2] 104 % of control | [3] 97 % of control

CCCCOc1ccc(N)cn1
inactive: [4] 95 % of control | [5] 95 % of control | [6] 113 % of control | [7] 96 % of control

COc1ccc2[nH]c3c(C)c4cc[n+](C)cc4c(C)c3c2c1
inactive: dose: 6.25 mg/kg/injection, schedule: Q04DX003 (ip), vehicle: saline sonified 105 % of control | [8] 115 % of control | dose: 12.5 mg/kg/injection, schedule: Q04DX003 (ip), vehicle: saline sonified 122 % of control | [9] 88 % of control

COc1cc2ccc(CCNCc3ccccc3)cc2cc1OC
inactive: [4] 97 % of control | [5] 91 % of control | [6] 90 % of control | [7] 87 % of control

COC(=O)CNC(=O)C1CSC(C)(C)N1 (configuration not stated)
inactive: dose: 100.0 mg/kg/injection, schedule: Q01DX001 (ip), vehicle: steriod suspending solution 100 % of control | dose: 200.0 mg/kg/injection, schedule: Q01DX001 (ip), vehicle: steriod suspending solution 97 % of control | dose: 400.0 mg/kg/injection, schedule: Q01DX001 (ip), vehicle: steriod suspending solution 100 % of control

C/C(=N\N=C(/C)c1c(C)c([N+](=O)[O-])c(C(C)(C)C)c([N+](=O)[O-])c1C)c1c(C)c([N+](=O)[O-])c(C(C)(C)C)c([N+](=O)[O-])c1C
inactive: [10] 97 % of control | [11] 94 % of control | [12] 97 % of control

Cc1cc(O)ccc1C1=NCC(C)S1 (configuration not stated)
inactive: dose: 100.0 mg/kg/injection, schedule: Q01DX005 (ip), vehicle: Klucel (hydroxypropylcellulose) (HPC) 87 % of control | [13] 98 % of control | [10] 100 % of control | dose: 200.0 mg/kg/injection, schedule: Q01DX005 (ip), vehicle: Klucel (hydroxypropylcellulose) (HPC) 101 % of control | [14] 109 % of control | [11] 100 % of control | dose: 400.0 mg/kg/injection, schedule: Q01DX005 (ip), vehicle: Klucel (hydroxypropylcellulose) (HPC) 90 % of control | [15] 95 % of control | [12] 107 % of control

CCC[CH2][Ge]([CH2]CCC)[O][Ge]([CH2]CCC)[CH2]CCC
inactive: dose: 100.0 mg/kg/injection, schedule: Q04DX002 (ip), vehicle: saline with Tween-80 87 % of control

Cc1nc(N)[nH]c(=O)c1CCC(=O)O
inactive: [7] 102 % of control | dose: 400.0 mg/kg/injection, schedule: Q04DX003 (ip), vehicle: saline 107 % of control

O=S1(=O)CC2C1C1(Cl)C(Cl)=C(Cl)C2(Cl)C1(Cl)Cl (configuration not stated)
inactive: dose: 50.0 mg/kg/injection, schedule: Q01DX001 (ip), vehicle: carboxymethylcellulose (CMC) 100 % of control | dose: 100.0 mg/kg/injection, schedule: Q01DX001 (ip), vehicle: carboxymethylcellulose (CMC) 91 % of control | dose: 200.0 mg/kg/injection, schedule: Q01DX001 (ip), vehicle: carboxymethylcellulose (CMC) 96 % of control | dose: 400.0 mg/kg/injection, schedule: Q01DX001 (ip), vehicle: carboxymethylcellulose (CMC) 96 % of control

S=c1[nH]c2cc3ccccc3cc2[nH]1
inactive: dose: 75.0 mg/kg/injection, schedule: Q01DX001 (ip), vehicle: saline 98 % of control | dose: 150.0 mg/kg/injection, schedule: Q01DX001 (ip), vehicle: saline 101 % of control | dose: 300.0 mg/kg/injection, schedule: Q01DX001 (ip), vehicle: saline 92 % of control

COC(=O)C1=C(C(=O)OC)C2C=CC1C2
inactive: [1] 102 % of control | [13] 111 % of control | [2] 94 % of control | [14] 91 % of control | [3] 91 % of control | [15] 97 % of control

O=C(/C=C/c1ccccc1)NC(=S)Nc1ncccn1
inactive: dose: 100.0 mg/kg/injection, schedule: Q01DX009 (ip), vehicle: carboxymethylcellulose (CMC) 93 % of control and 96 % of control | dose: 100.0 mg/kg/injection, schedule: Q04DX002 (ip), vehicle: carboxymethylcellulose (CMC) 96 % of control and 104 % of control | dose: 100.0 mg/kg/injection, schedule: Q04DX003 (ip), vehicle: carboxymethylcellulose (CMC) 94 % of control | dose: 200.0 mg/kg/injection, schedule: Q01DX009 (ip), vehicle: carboxymethylcellulose (CMC) 92 % of control and 96 % of control | dose: 200.0 mg/kg/injection, schedule: Q04DX002 (ip), vehicle: carboxymethylcellulose (CMC) 96 % of control and 98 % of control | dose: 200.0 mg/kg/injection, schedule: Q04DX003 (ip), vehicle: carboxymethylcellulose (CMC) 91 % of control | dose: 400.0 mg/kg/injection, schedule: Q01DX009 (ip), vehicle: carboxymethylcellulose (CMC) 96 % of control and 104 % of control | dose: 400.0 mg/kg/injection, schedule: Q04DX002 (ip), vehicle: carboxymethylcellulose (CMC) 96 % of control and 91 % of control

CC(C)(C)C(=O)OCn1cnc(C#N)c1[N+](=O)[O-]
inactive: dose: 100.0 mg/kg/injection, schedule: Q01DX001 (ip), vehicle: acetone 92 % of control | dose: 200.0 mg/kg/injection, schedule: Q01DX001 (ip), vehicle: acetone 101 % of control | dose: 400.0 mg/kg/injection, schedule: Q01DX001 (ip), vehicle: acetone 92 % of control

O=C(COCC(=O)N/N=C/c1ccc(Cl)cc1Cl)N/N=C\c1cc(Cl)cc(Cl)c1
inactive: [13] 93 % of control | [14] 88 % of control

OC(CCl)Cc1ccccc1 (configuration not stated)
inactive: dose: 25.0 mg/kg/injection, schedule: Q01DX009 (ip), vehicle: saline with Tween-80 93 % of control | dose: 50.0 mg/kg/injection, schedule: Q01DX009 (ip), vehicle: saline with Tween-80 90 % of control | dose: 100.0 mg/kg/injection, schedule: Q01DX009 (ip), vehicle: saline with Tween-80 92 % of control

O=C(NN(c1ccc([N+](=O)[O-])cc1)c1ccc([N+](=O)[O-])cc1)c1ccccc1
inactive: dose: 50.0 mg/kg/injection, schedule: Q01DX009 (ip), vehicle: Klucel (hydroxypropylcellulose) (HPC) 103 % of control | [13] 100 % of control | dose: 100.0 mg/kg/injection, schedule: Q04DX003 (ip), vehicle: Klucel (hydroxypropylcellulose) (HPC) 94 % of control | [14] 102 % of control | dose: 200.0 mg/kg/injection, schedule: Q04DX003 (ip), vehicle: Klucel (hydroxypropylcellulose) (HPC) 93 % of control | [15] 102 % of control | dose: 400.0 mg/kg/injection, schedule: Q04DX003 (ip), vehicle: Klucel (hydroxypropylcellulose) (HPC) 94 % of control

CCN(CC)c1ccc(/C=C/C(=O)c2ccc(N(CC)CC)cc2)cc1
inactive: [13] 94 % of control | [14] 97 % of control | [15] 97 % of control

O=C(C[n+]1cccc(C(=O)Nc2ccccc2)c1)Nc1ccccc1
inactive: [7] 95 % of control

O=C(CCl)c1cnc2ccccc2n1
inactive: dose: 5.0 mg/kg/injection, schedule: Q01DX009 (ip), vehicle: saline 102 % of control | dose: 5.0 mg/kg/injection, schedule: Q04DX003 (ip), vehicle: saline 103 % of control | dose: 10.0 mg/kg/injection, schedule: Q01DX009 (ip), vehicle: saline 98 % of control | [8] 100 % of control | dose: 20.0 mg/kg/injection, schedule: Q01DX009 (ip), vehicle: saline 93 % of control | [9] 100 % of control
